#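 Briefly, cells in 96-well plates were exposed to five compound concentrations for 48 h, and endpoints were estimated by linear interpolation. Abbreviation: GI50, concentration required for 50% inhibition of growth.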 Active and inactive are the calls of the source. Rule as the data show it: active = GI50 up to about 1.1 µM and inactive = higher.
# How the values were obtained:
# Assay in all cases: inhibition of tumour cell growth, NCI panel, 48 h
# [1] = system: SNB-19
# [2] = system: T47D
# [3] = system: HCT-15
# [4] = system: A498
# [5] = system: ACHN
# [6] = system: SK-MEL-28
# [7] = system: MOLT-4
# [8] = system: UO-31
# [9] = system: Malme-3M
# [10] = system: SK-MEL-5
# [11] = system: SK-MEL-2
# [12] = system: NCI-H460
# [13] = system: SF-268
# [14] = system: NCI-H23
# [15] = system: HCT-116
# [16] = system: OVCAR-4
# [17] = system: CCRF-CEM
# [18] = system: BT-549
# [19] = system: NCI-H226
# [20] = system: SK-OV-3
SMILES,GI50 [1],GI50 [2],GI50 [3],GI50 [4],GI50 [5],GI50 [6],GI50 [7],GI50 [8],GI50 [9],GI50 [10],GI50 [11],GI50 [12],GI50 [13],GI50 [14],GI50 [15],GI50 [16],GI50 [17],GI50 [18],GI50 [19],GI50 [20]
CC(=O)Oc1ccc2c(c1)CC[C@@H]1C2[C@@H](O[N+](=O)[O-])C[C@@]2(C)C1CC[C@@H]2O[N+](=O)[O-] (some centres not stated),16.9 µM (inactive),6.97 µM (inactive),13.3 µM,18.6 µM (inactive),8.69 µM (inactive),14.5 µM (inactive),10.4 µM (inactive),12.3 µM (inactive),13.7 µM (inactive),9.75 µM (inactive),15.4 µM (inactive),12.8 µM (inactive),13.3 µM (inactive),12.7 µM (inactive),10.2 µM (inactive),16.3 µM (inactive),9.1 µM (inactive),17.6 µM (inactive),,
c1ccc([P+](CCNCCNCC[P+](c2ccccc2)(c2ccccc2)c2ccccc2)(c2ccccc2)c2ccccc2)cc1,> 100 µM (inactive),> 100 µM (inactive),> 100 µM,> 100 µM (inactive),> 100 µM (inactive),> 100 µM (inactive),> 100 µM (inactive),> 100 µM (inactive),,> 100 µM (inactive),> 100 µM (inactive),> 100 µM (inactive),> 100 µM (inactive),> 100 µM (inactive),> 100 µM (inactive),> 100 µM (inactive),,> 100 µM (inactive),> 100 µM (inactive),> 100 µM (inactive)
COc1ccc2c(c1)CCN=C2c1ccccc1CCCCl,7.67 µM (inactive),10.8 µM (inactive),23.6 µM,49.1 µM (inactive),24.3 µM (inactive),> 100 µM (inactive),13 µM (inactive),10 µM (inactive),,4.99 µM (inactive),28 µM (inactive),13.6 µM (inactive),22.2 µM (inactive),4.85 µM (inactive),18.2 µM (inactive),13.7 µM (inactive),41.4 µM (inactive),38.5 µM (inactive),15.7 µM (inactive),31.5 µM (inactive)
COc1cccc(N2C(=O)/C(=C\c3ccccc3)SC2c2cc(OC)c(OC)c(OC)c2)c1 (configuration not stated),77.6 µM (inactive),17.4 µM (inactive),44.3 µM,28.8 µM (inactive),> 100 µM (inactive),96.2 µM (inactive),27.5 µM (inactive),43.2 µM (inactive),,42.9 µM (inactive),62.1 µM (inactive),,41.4 µM (inactive),52.6 µM (inactive),30.1 µM (inactive),46.5 µM (inactive),37.8 µM (inactive),47.9 µM (inactive),> 100 µM (inactive),35.6 µM (inactive)
C=C(C)[C@@]1(OC(=O)c2cc([N+](=O)[O-])cc([N+](=O)[O-])c2)C[C@@H]2CCCC[C@@H]21,> 100 µM (inactive),> 100 µM (inactive),> 100 µM,,> 100 µM (inactive),> 100 µM (inactive),> 100 µM (inactive),16.4 µM (inactive),34.2 µM (inactive),> 10 µM (inactive),58.3 µM (inactive),46.9 µM (inactive),> 100 µM (inactive),> 100 µM (inactive),> 100 µM (inactive),56.2 µM (inactive),> 100 µM (inactive),> 100 µM (inactive),> 100 µM (inactive),> 100 µM (inactive)
CC1C(=NO)C(C)C(c2ccccc2)N(N=O)C1c1ccccc1 (configuration not stated),18.3 µM (inactive),18.7 µM (inactive),16.6 µM,,20.2 µM (inactive),16.7 µM (inactive),12.2 µM (inactive),13.3 µM (inactive),17.4 µM (inactive),18.9 µM (inactive),18.7 µM (inactive),16 µM (inactive),15 µM (inactive),24.8 µM (inactive),17.5 µM (inactive),19.6 µM (inactive),28.1 µM (inactive),22.9 µM (inactive),24.7 µM (inactive),4.72 µM (inactive)
COC(CN(C)C(=O)C(C)NC(=O)c1ccccc1)OC (configuration not stated),,> 100 µM (inactive),> 100 µM,,> 100 µM (inactive),,> 100 µM (inactive),,> 100 µM (inactive),> 100 µM (inactive),> 100 µM (inactive),> 100 µM (inactive),> 100 µM (inactive),> 100 µM (inactive),> 100 µM (inactive),> 100 µM (inactive),> 100 µM (inactive),> 100 µM (inactive),> 100 µM (inactive),> 100 µM (inactive)
